# Data: patent US20240294541A1, “COMPOUNDS CONSTITUTING C20-MODIFIED SALINOMYCIN DERIVATIVES, A METHOD FOR OBTAINING THE SAME, A COMPOSITION CONTAINING THE SAME AND A USE OF SAID COMPOUNDS” (FILECLO SPOLKA Z OGRANICZONA ODPOWIEDZIALNOSCIA, priority 2021, published 2024)
# Legend:
# Format in all cases: cell-based
# cancer cells = experiment: In vitro cytotoxic activity on the panel of cancer cell lines (MTT/SRB), general statements; details: Tables 3.1, 3.2, 4 and 5; parent compound salinomycin
# [1] = system: PLC/PRF/5 (human liver cancer); experiment: cells; details: Table 4; for IC50: PLC/PRF/5 human liver cancer cells, read-out: IC50 (nM) PLC/PRF/5; for SI PLC/PRF/5: selectivity coefficient vs normal BALB/3T3 fibroblasts
# [2] = system: SNU-16 (human gastric cancer); experiment: cells; details: Table 4; for IC50: SNU-16 human gastric cancer cells, read-out: IC50 (nM) SNU-16; for SI SNU-16: selectivity coefficient vs normal BALB/3T3 fibroblasts
# [3] = system: NCI-H358 (human lung cancer); experiment: cells; details: Table 4; for IC50: NCI-H358 human lung cancer cells, read-out: IC50 (nM) NCI-H358; for SI NCI-H358: selectivity coefficient vs normal BALB/3T3 fibroblasts
# [4] = system: MIA PaCa-2 (human pancreatic cancer); experiment: cells; details: Table 4; for IC50: MIA PaCa-2 human pancreatic cancer cells, read-out: IC50 (nM) MIA PaCa-2; for SI MIA PaCa-2: selectivity coefficient vs normal BALB/3T3 fibroblasts
# Hs294T (human melanoma) = experiment: cells; details: Table 4; for IC50: Hs 294T, Hs294T human melanoma cells, read-out: IC50 (nM) Hs294T; for SI Hs294T: selectivity coefficient vs normal BALB/3T3 fibroblasts
# [5] = system: MV-4-11 (human biphenotypic leukaemia); experiment: In vitro cytotoxicity, MTT assay, MV-4-11; details: for IC50: Homo sapiens, MV4-11, read-out: IC50 (nM) MV4-11
# [6] = system: A2780Cis (cisplatin-resistant human ovarian cancer); experiment: In vitro cytotoxicity, SRB assay, A2780Cis; details: for IC50: Homo sapiens, A2780cis, read-out: IC50 (nM) A2780Cis
# [7] = system: BALB/3T3 (normal mouse fibroblasts); experiment: In vitro cytotoxicity, SRB assay, normal BALB/3T3 fibroblasts; details: Table 4; BALB/3T3 normal mouse fibroblasts; read-out: IC50 (nM) BALB3T3 normal cells
SMILES,anti-proliferative effect compared to that of the parent compound (cancer cells),IC50 [1],IC50 [2],IC50 [3],IC50 [4],IC50 (Hs294T (human melanoma)),SI PLC/PRF/5 [1],SI SNU-16 [2],SI MV4-11 [5],IC50 [5],SI NCI-H358 [3],SI MIA PaCa-2 [4],SI A2780Cis [6],IC50 [6],SI Hs294T (Hs294T (human melanoma)),IC50 [7]
CCCOC(=O)N[C@@H]1C=C[C@]2(O[C@H]([C@@H](CC)C(=O)[C@@H](C)[C@@H](O)[C@H](C)[C@@H]3O[C@@H]([C@@H](CC)C(=O)O)CC[C@@H]3C)[C@@H](C)C[C@H]2C)O[C@@]12CC[C@@](C)([C@H]1CC[C@](O)(CC)[C@H](C)O1)O2 [FLC-00424-1•Na],several times more potent compared to that of the parent compound,5.01 nM,220 nM,48.7 nM,38.4 nM,685 nM,,,,,,,,,,
CC[C@@H](C(=O)[C@@H](C)[C@@H](O)[C@H](C)[C@@H]1O[C@@H]([C@@H](CC)C(=O)O)CC[C@@H]1C)[C@H]1O[C@]2(C=C[C@@H](NC(=O)OCC(F)F)[C@]3(CC[C@@](C)([C@H]4CC[C@](O)(CC)[C@H](C)O4)O3)O2)[C@H](C)C[C@@H]1C [FLC-00446-1•Na],several times more potent compared to that of the parent compound,37.9 nM,262 nM,50.8 nM,26.8 nM,189 nM,5.5,0.8,298.7,0.7 nM,4.12,7.8,294.5,0.71 nM,1.1,209 nM
CC[C@@H](C(=O)[C@@H](C)[C@@H](O)[C@H](C)[C@@H]1O[C@@H]([C@@H](CC)C(=O)O)CC[C@@H]1C)[C@H]1O[C@]2(C=C[C@@H](NC(=O)C(=O)NCCc3ccccc3)[C@]3(CC[C@@](C)([C@H]4CC[C@](O)(CC)[C@H](C)O4)O3)O2)[C@H](C)C[C@@H]1C [FLC-00457-1•Na],several times more potent compared to that of the parent compound,122 nM,551 nM,446 nM,53.7 nM,2530 nM,6.0,1.3,40.7,18 nM,1.65,13.7,76.0,9.66 nM,0.3,734 nM
